Type in all cases: biochemical
For one test, the target named is T1, Akt1 (Homo sapiens, UniProt P31749).
T1 construct: unspecified tag, removed (detagged) (cleaved yes); purchased SignalChem and Proteros (Akt1); Merck Millipore (PDK1) 14-452 (PDK1); none given for Akt1
Briefly: Akt activation assay (PDK1-mediated activation, LANCE Ultra crosstide TR-FRET), Akt1. The note with it: read-out: Biological Assay 1 IC50 (nM) Akt1. As for the experimental part:
(§1) Biological Assay 1: Akt Activation Assay
(§2) Addition of a Europium-labelled antibody specific to the phosphopeptide allows energy transfer from the Europium donor to the Ultra Ulight™ acceptor if close enough in proximity.
(§3) Full length active His6-tagged PDK1 was obtained from Merck Millipore (14-452).
(§4) 1× assay buffer (AB): 50 mM HEPES pH 7.5, 1 mM EGTA, 10 mM MgCl2, 0.01% Tween. Immediately before use, DTT to a concentration of 2 mM was added.
(§5) To prepare lipid vesicles: 1 mg/ml PtdIns(3,4,5)P3 solution (in 10 mM HEPES 7.5) was added to 16.7 mg/ml DOPS/DOPC mixture (in 10 mM HEPES pH 7.5) in a ratio of 1:8.3. MilliQ water was added to the solution to generate concentrations of 400 μM DOPS, 400 μM DOPC and 40 μM PtdIns(3,4,5)P3. The mixture was subjected to 5× freeze/thaw cycles and aliquots stored at −20° C.
(§6) 5 μL enzyme in 1×AB was incubated with 2.5 μL test compound. To start the reaction 2.5 μL reaction mix was added which consisted of PDK1, lipid preparations, crosstide and ATP in 1×AB. Final assay concentrations were as follows: 1% DMSO, 5 nM SignalChem Akt1/15 nM SignalChem Akt2/3 nM Signalchem Akt3/5 nM Proteros Akt1/5 nM proteros Akt2/5 nM Proteros Akt3, 5 nM PDK1, 5.5 μM DOPS, 5.5 μM DOPC, 0.55 μM PtdIns(3,4,5)P3, 100 μM ATP, 100 nM LANCE® Ultra Ulight™-Crosstide. After 30 min, the reaction was stopped using 5 μL 40 μM EDTA in 1× Detection buffer for 5 min. For detection, 5 μL 8 nM LANCE® Ultra Europium-anti-phospho-Crosstide antibody in 1× Detection buffer was added to each well and incubated for 1 h. Plates read with the EnVision® Multilabel Plate Reader, excitation at 320 nm and emission at 665 nm and 615 nm. Compound IC50 was determined using a 4-parameter equation.

The next test has as its target T2, Akt2 (Homo sapiens, UniProt P31751).
T2 construct: unspecified tag, removed (detagged) (cleaved yes); purchased SignalChem and Proteros (Akt2); Merck Millipore (PDK1) 14-452 (PDK1); none given for Akt2
Nature of the test: Akt activation assay (PDK1-mediated activation, LANCE Ultra crosstide TR-FRET), Akt2. The note with it: read-out: Biological Assay 1 IC50 (nM) Akt2. As for the experimental part:
as §1, §2, §3, §4, §5, §6

For a further test, the target named is T3, Akt3 (Homo sapiens, UniProt Q9Y243).
T3 construct: unspecified tag, removed (detagged) (cleaved yes); purchased SignalChem and Proteros (Akt3); Merck Millipore (PDK1) 14-452 (PDK1); none given for Akt3
Nature of the test: Akt activation assay (PDK1-mediated activation, LANCE Ultra crosstide TR-FRET), Akt3. As to conditions: read-out: Biological Assay 1 IC50 (nM) Akt3. As to the method:
as §1, §2, §3, §4, §5, §6

Some results are limits rather than exact numbers.

This is an account of results in patent US10336702B2, “Pharmaceutically active compounds” (BERGENBIO ASA, priority 2015, dated 2019).

T1 sequence (P31749 whole entry): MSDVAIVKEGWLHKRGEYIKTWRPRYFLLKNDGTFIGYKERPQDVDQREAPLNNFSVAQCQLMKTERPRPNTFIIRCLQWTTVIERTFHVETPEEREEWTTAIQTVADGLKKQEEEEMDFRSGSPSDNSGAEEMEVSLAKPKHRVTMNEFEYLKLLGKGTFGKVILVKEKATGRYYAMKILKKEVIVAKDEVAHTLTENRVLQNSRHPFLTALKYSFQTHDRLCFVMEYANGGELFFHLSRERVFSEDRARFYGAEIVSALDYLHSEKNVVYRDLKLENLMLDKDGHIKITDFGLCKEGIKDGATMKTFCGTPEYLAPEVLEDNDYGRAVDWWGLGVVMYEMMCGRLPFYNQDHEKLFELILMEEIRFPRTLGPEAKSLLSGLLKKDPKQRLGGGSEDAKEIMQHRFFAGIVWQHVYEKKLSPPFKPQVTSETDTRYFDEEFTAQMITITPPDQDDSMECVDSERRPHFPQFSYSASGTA
T2 sequence (P31751 whole entry): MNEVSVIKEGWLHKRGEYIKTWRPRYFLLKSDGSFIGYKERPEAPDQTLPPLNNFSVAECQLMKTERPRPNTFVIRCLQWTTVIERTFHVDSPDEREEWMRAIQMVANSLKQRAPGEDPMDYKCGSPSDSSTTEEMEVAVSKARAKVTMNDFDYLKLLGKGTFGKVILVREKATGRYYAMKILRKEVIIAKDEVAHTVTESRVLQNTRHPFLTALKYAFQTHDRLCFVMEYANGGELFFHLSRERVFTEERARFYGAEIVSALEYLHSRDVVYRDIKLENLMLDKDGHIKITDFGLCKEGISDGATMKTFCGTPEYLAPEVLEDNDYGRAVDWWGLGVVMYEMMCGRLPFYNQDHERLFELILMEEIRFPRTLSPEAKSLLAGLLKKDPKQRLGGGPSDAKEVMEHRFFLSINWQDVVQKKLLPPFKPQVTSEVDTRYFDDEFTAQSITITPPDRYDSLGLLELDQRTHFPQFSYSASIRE
T3 sequence (Q9Y243 whole entry): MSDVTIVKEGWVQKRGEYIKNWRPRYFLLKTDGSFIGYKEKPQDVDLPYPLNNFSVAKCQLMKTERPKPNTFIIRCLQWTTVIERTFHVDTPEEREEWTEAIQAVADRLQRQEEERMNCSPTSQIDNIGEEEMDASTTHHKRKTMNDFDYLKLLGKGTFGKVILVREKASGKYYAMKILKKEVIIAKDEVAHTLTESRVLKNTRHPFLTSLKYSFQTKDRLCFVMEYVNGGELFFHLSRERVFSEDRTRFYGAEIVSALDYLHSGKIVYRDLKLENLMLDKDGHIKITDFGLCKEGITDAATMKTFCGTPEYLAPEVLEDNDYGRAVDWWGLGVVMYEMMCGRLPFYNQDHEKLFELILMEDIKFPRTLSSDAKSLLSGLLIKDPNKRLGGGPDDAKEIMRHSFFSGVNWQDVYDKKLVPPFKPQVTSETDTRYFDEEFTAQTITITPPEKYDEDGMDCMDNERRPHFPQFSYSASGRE

In the case of `Cc1cscc1-c1cc(NC(=O)C[C@H]2CC[C@H](N(C)S(C)(=O)=O)CC2)cnc1-c1ccc(C2(N)CCC2)cc1` [Example 19, N-(6-(4-(1-aminocyclobutyl)phenyl)-5-(4-methylthiophen-3-yl)pyridin-3-yl)-2-(trans-4-(N-methylmethylsulfonamido)cyclohexyl)acetamide], the IC50 on Akt1 was above 30000 nM; on Akt2, above 26000 nM; at Akt3, 6400 nM.
Taken in the same sequence, the figures for `CN(C(=O)CC1CC1)[C@H]1CC[C@H](CC(=O)Nc2cnc(-c3ccc(C(C)(C)N)cc3)c(-c3ccccc3)c2)CC1` [Example A32, N-(trans-4-(2-((6-(4-(2-aminopropan-2-yl)phenyl)-5-phenylpyridin-3-yl)amino)-2-oxoethyl)cyclohexyl)-2-cyclopropyl-N-methylacetamide] were above 30000 nM, 9700 nM and 630 nM.
In the case of `CC(=O)N[C@H]1CC[C@H](CC(=O)Nc2cnc(-c3ccc([C@H](C)N)cc3)c(-c3ccccc3)c2)CC1` [Example A8, 2-(trans-4-acetamidocyclohexyl)-N-(6-(4-((S)-1-aminoethyl)phenyl)-5-phenylpyridin-3-yl)acetamide], the IC50 on Akt1 is above 30000 nM; at Akt2 it was 6900 nM; at Akt3, 530 nM.
In the case of `CN(C(=O)C1(C)CC1)[C@H]1CC[C@H](CC(=O)Nc2cnc(-c3ccc(C(C)(C)N)cc3)c(-c3ccccc3)c2)CC1` [Example A31, N-(trans-4-(2-((6-(4-(2-aminopropan-2-yl)phenyl)-5-phenylpyridin-3-yl)amino)-2-oxoethyl)cyclohexyl)-N,1-dimethylcyclopropane-1-carboxamide], the IC50 at Akt1 is above 30000 nM; at Akt2, 11000 nM; on Akt3, 1400 nM.
Turning to `C[C@]1(O)C[C@@](N)(c2ccc(-c3ncc(NC(=O)C[C@H]4CC[C@H](NC(=O)C(F)F)CC4)cc3-c3ccccc3)cc2)C1` [Example A5, N-(trans-4-(2-((6-(4-(trans-1-amino-3-hydroxy-3-methylcyclobutyl)phenyl)-5-phenylpyridin-3-yl)amino)-2-oxoethyl)cyclohexyl)-2,2-difluoroacetamide], the IC50 on Akt1 is 760 nM; at Akt2 it was 43 nM; on Akt3, 10 nM.
Taken in the same sequence, the figures for `NC1(c2ccc(-c3ncc(NC(=O)C[C@H]4CC[C@H](NS(=O)(=O)C5CC5)CC4)cc3-c3ccccc3)cc2)COC1` [Example 37, N-(6-(4-(3-aminooxetan-3-yl)phenyl)-5-phenylpyridin-3-yl)-2-(trans-4-(cyclopropanesulfonamido)cyclohexyl)acetamide] were above 30000 nM, 590 nM and 56 nM.
Consider `CC(=O)N(C)[C@H]1CC[C@H](CC(=O)Nc2cnc(-c3ccc([C@@H](C)N)cc3)c(-c3ccccc3)c2)CC1` [Example 8, N-(6-(4-((R)-1-aminoethyl)phenyl)-5-phenylpyridin-3-yl)-2-(trans-4-(N-methylacetamido)cyclohexyl)acetamide], for which the results for the IC50 on Akt1, at Akt2 and at Akt3 were 12000 nM, 710 nM and 51 nM, respectively.
Consider `C[C@@H]1CC(CC(=O)Nc2cnc(-c3ccc(C4(N)COC4)cc3)c(-c3ccccc3)c2)C[C@H](C)O1` (stereo partly drawn) [Example 22, N-(6-(4-(3-aminooxetan-3-yl)phenyl)-5-phenylpyridin-3-yl)-2-((2r,6s)-2,6-dimethyltetrahydro-2H-pyran-4-yl)acetamide], for which the IC50 at Akt1 is above 30000 nM; on Akt2, 2600 nM; at Akt3, 210 nM.
For the compound `CC(=O)N[C@H]1CC[C@H](CC(=O)Nc2cnc(-c3ccc(C4(N)CC(F)(F)C4)cc3)c(-c3ccccc3)c2)CC1` [Example 25, 2-(trans-4-acetamidocyclohexyl)-N-(6-(4-(1-amino-3,3-difluorocyclobutyl)phenyl)-5-phenylpyridin-3-yl)acetamide], the IC50 at Akt1 amounted to 8300 nM; on Akt2 it was 270 nM; at Akt3, 170 nM.
With `CC(=O)N[C@H]1CC[C@H](CC(=O)Nc2cnc(-c3ccc(C4(N)COC4)cc3)c(-c3ccccc3)c2)CC1` [Example 14, 2-(trans-4-acetamidocyclohexyl)-N-(6-(4-(3-aminooxetan-3-yl)phenyl)-5-phenylpyridin-3-yl)acetamide], the IC50 at Akt1 was above 30000 nM; at Akt2, 1300 nM; on Akt3 it was 600 nM.
With `CC(=O)N(C)[C@H]1CC[C@H](CC(=O)Nc2cnc(-c3ccc([C@H](N)C(F)F)cc3)c(-c3ccccc3)c2)CC1` [Example 11, N-(6-(4-((S)-1-amino-2,2-difluoroethyl)phenyl)-5-phenylpyridin-3-yl)-2-(trans-4-(N-methylacetamido)cyclohexyl)acetamide], the IC50 at Akt1 is above 30000 nM; on Akt2, above 20000 nM; at Akt3 it was 630 nM.
Regarding `CC(=O)N[C@H]1CC[C@H](CC(=O)Nc2cnc(-c3ccc(C(C)(C)N)cc3)c(-c3ccsc3)c2)CC1` [Example A23, 2-(trans-4-acetamidocyclohexyl)-N-(6-(4-(2-aminopropan-2-yl)phenyl)-5-(thiophen-3-yl)pyridin-3-yl)acetamide], the results for the IC50 on Akt1, at Akt2 and at Akt3 were above 30000 nM, 22000 nM and 1900 nM, respectively.
Consider `NC1(c2ccc(-c3ncc(NC(=O)C[C@H]4CC[C@H](NC(=O)C5CC5)CC4)cc3-c3ccccc3)cc2)CCC1` [Example A39, N-(trans-4-(2-((6-(4-(1-aminocyclobutyl)phenyl)-5-phenylpyridin-3-yl)amino)-2-oxoethyl)cyclohexyl)cyclopropane-carboxamide], for which the IC50 on Akt1 worked out at 3100 nM; at Akt2, 140 nM; on Akt3, 15 nM.
With `CC(C)C(=O)N[C@H]1CC[C@H](CC(=O)Nc2cnc(-c3ccc(C(C)(C)N)cc3)c(-c3ccccc3)c2)CC1` [Example A22, N-(trans-4-(2-((6-(4-(2-aminopropan-2-yl)phenyl)-5-phenylpyridin-3-yl)amino)-2-oxoethyl)cyclohexyl)isobutyramide], the IC50 at Akt1 was above 30000 nM; at Akt2, 3500 nM; on Akt3, 68 nM.
With `NC1(c2ccc(-c3ncc(NC(=O)C[C@H]4CC[C@H](NC(=O)C(F)F)CC4)cc3-c3ccccc3)cc2)CCC1` [Example A35, N-(trans-4-(2-((6-(4-(1-aminocyclobutyl)phenyl)-5-phenylpyridin-3-yl)amino)-2-oxoethyl)cyclohexyl)-2,2-difluoroacetamide], the IC50 is 9400 nM at Akt1, 370 nM at Akt2 and 20 nM on Akt3.
